From ChEMBL document CHEMBL1201862, “PubChem BioAssay data set” (2004)
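Exposure lasted 48 hours, with cells grown in 96-well plates and compounds tested at five concentrations. GI50 = concentration required for 50% inhibition of growth.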 Activity calls are given as the source filed them. Cut-off read from the data, not from the text of the source: active = GI50 up to about 1.1 µM and inactive = higher.

Assays:
Experiment in all cases: NCI anticancer screen, dose series, 48 h
OVCAR-8 = system: OVCAR-8
T47D = system: T47D
M14 = system: M14
SK-MEL-28 = system: SK-MEL-28
K562 = system: K562
EKVX = system: EKVX
HCC 2998 = system: HCC 2998
HOP-92 = system: HOP-92
SF-268 = system: SF-268
NCI/ADR-RES = system: NCI/ADR-RES
SNB-19 = system: SNB-19
DU-145 = system: DU-145
SW-620 = system: SW-620
786-0 = system: 786-0
SF-539 = system: SF-539
RXF 393 = system: RXF 393
MDA-MB-435 = system: MDA-MB-435
UACC-62 = system: UACC-62
HT-29 = system: HT-29
HCT-116 = system: HCT-116
BT-549 = system: BT-549
RPMI-8226 = system: RPMI-8226
MDA-N = system: MDA-N
SK-MEL-5 = system: SK-MEL-5
A549 = system: A549
TK-10 = system: TK-10
MOLT-4 = system: MOLT-4
CCRF-CEM = system: CCRF-CEM
ACHN = system: ACHN
NCI-H226 = system: NCI-H226
KM12 = system: KM12
Hs-578T = system: Hs-578T
MDA-MB-231 = system: MDA-MB-231
HOP-62 = system: HOP-62
SR = system: SR
HL-60 = system: HL-60
UO-31 = system: UO-31
COLO 205 = system: COLO 205
IGROV-1 = system: IGROV-1
NCI-H460 = system: NCI-H460
NCI-H23 = system: NCI-H23
SN12C = system: SN12C
NCI-H522 = system: NCI-H522
CAKI-1 = system: CAKI-1
Malme-3M = system: Malme-3M
UACC-257 = system: UACC-257
OVCAR-4 = system: OVCAR-4
SK-OV-3 = system: SK-OV-3
PC-3 = system: PC-3
SNB-75 = system: SNB-75
LOX IMVI = system: LOX IMVI
HCT-15 = system: HCT-15
MCF7 = system: MCF7
SF-295 = system: SF-295
OVCAR-5 = system: OVCAR-5
A498 = system: A498
OVCAR-3 = system: OVCAR-3
SK-MEL-2 = system: SK-MEL-2
U-251 = system: U-251

COCc1nc(C#N)c(N)o1
GI50 (OVCAR-8): > 10 µM (inactive)
GI50 (T47D): > 10 µM (inactive)
GI50 (M14): > 10 µM (inactive)
GI50 (SK-MEL-28): > 10 µM (inactive)
GI50 (K562): > 10 µM (inactive)
GI50 (EKVX): > 10 µM (inactive)
GI50 (HCC 2998): > 10 µM (inactive)
GI50 (HOP-92): > 10 µM (inactive)
GI50 (SF-268): > 10 µM (inactive)
GI50 (NCI/ADR-RES): > 10 µM (inactive)
GI50 (SNB-19): > 10 µM (inactive)
GI50 (DU-145): > 10 µM (inactive)
GI50 (SW-620): > 10 µM (inactive)
GI50 (786-0): > 10 µM (inactive)
GI50 (SF-539): > 10 µM (inactive)
GI50 (RXF 393): > 10 µM (inactive)
GI50 (MDA-MB-435): > 10 µM (inactive)
GI50 (UACC-62): > 10 µM (inactive)
GI50 (HT-29): > 10 µM (inactive)
GI50 (HCT-116): > 10 µM (inactive)
GI50 (BT-549): > 10 µM (inactive)
GI50 (RPMI-8226): > 10 µM (inactive)
GI50 (MDA-N): > 10 µM (inactive)
GI50 (SK-MEL-5): > 10 µM (inactive)
GI50 (A549): > 10 µM (inactive)
GI50 (TK-10): > 10 µM (inactive)
GI50 (MOLT-4): > 10 µM (inactive)
GI50 (CCRF-CEM): > 10 µM (inactive)
GI50 (ACHN): > 10 µM (inactive)
GI50 (NCI-H226): > 10 µM (inactive)
GI50 (KM12): > 10 µM (inactive)
GI50 (Hs-578T): > 10 µM (inactive)
GI50 (MDA-MB-231): > 10 µM (inactive)
GI50 (HOP-62): > 10 µM (inactive)
GI50 (SR): > 10 µM (inactive)
GI50 (HL-60): > 10 µM (inactive)
GI50 (UO-31): > 10 µM (inactive)
GI50 (COLO 205): > 10 µM (inactive)
GI50 (IGROV-1): > 10 µM (inactive)
GI50 (NCI-H460): > 10 µM (inactive)
GI50 (NCI-H23): > 10 µM (inactive)
GI50 (SN12C): > 10 µM (inactive)
GI50 (NCI-H522): > 10 µM (inactive)
GI50 (CAKI-1): > 10 µM (inactive)
GI50 (Malme-3M): > 10 µM (inactive)
GI50 (UACC-257): > 10 µM (inactive)
GI50 (OVCAR-4): > 10 µM (inactive)
GI50 (SK-OV-3): > 10 µM (inactive)
GI50 (PC-3): > 10 µM (inactive)
GI50 (SNB-75): > 10 µM (inactive)
GI50 (LOX IMVI): > 10 µM (inactive)
GI50 (HCT-15): > 10 µM
GI50 (MCF7): > 10 µM (inactive)
GI50 (SF-295): > 10 µM (inactive)

Nc1c(C(=O)O)c2ccc([N+](=O)[O-])cc2c(=O)n1-c1nc2ccccc2s1
GI50 (OVCAR-8): > 100 µM (inactive)
GI50 (T47D): > 100 µM (inactive)
GI50 (M14): > 100 µM (inactive)
GI50 (SK-MEL-28): > 100 µM (inactive)
GI50 (K562): > 100 µM (inactive)
GI50 (EKVX): > 100 µM (inactive)
GI50 (HCC 2998): > 100 µM (inactive)
GI50 (SF-268): > 100 µM (inactive)
GI50 (NCI/ADR-RES): > 100 µM (inactive)
GI50 (SNB-19): > 100 µM (inactive)
GI50 (DU-145): > 100 µM (inactive)
GI50 (SW-620): > 100 µM (inactive)
GI50 (786-0): > 100 µM (inactive)
GI50 (RXF 393): > 100 µM (inactive)
GI50 (MDA-MB-435): > 100 µM (inactive)
GI50 (UACC-62): > 100 µM (inactive)
GI50 (HT-29): > 100 µM (inactive)
GI50 (HCT-116): > 100 µM (inactive)
GI50 (BT-549): > 100 µM (inactive)
GI50 (OVCAR-5): > 100 µM (inactive)
GI50 (RPMI-8226): > 100 µM (inactive)
GI50 (MDA-N): > 100 µM (inactive)
GI50 (A498): > 100 µM (inactive)
GI50 (SK-MEL-5): > 100 µM (inactive)
GI50 (A549): > 100 µM (inactive)
GI50 (MOLT-4): > 100 µM (inactive)
GI50 (CCRF-CEM): > 100 µM (inactive)
GI50 (ACHN): > 100 µM (inactive)
GI50 (NCI-H226): > 100 µM (inactive)
GI50 (KM12): > 100 µM (inactive)
GI50 (Hs-578T): > 100 µM (inactive)
GI50 (MDA-MB-231): > 100 µM (inactive)
GI50 (HOP-62): > 100 µM (inactive)
GI50 (SR): > 100 µM (inactive)
GI50 (UO-31): > 100 µM (inactive)
GI50 (COLO 205): > 100 µM (inactive)
GI50 (IGROV-1): > 100 µM (inactive)
GI50 (NCI-H460): > 100 µM (inactive)
GI50 (NCI-H23): > 100 µM (inactive)
GI50 (SN12C): > 100 µM (inactive)
GI50 (NCI-H522): > 100 µM (inactive)
GI50 (OVCAR-3): > 100 µM (inactive)
GI50 (CAKI-1): > 100 µM (inactive)
GI50 (Malme-3M): > 100 µM (inactive)
GI50 (OVCAR-4): > 100 µM (inactive)
GI50 (SK-OV-3): > 100 µM (inactive)
GI50 (PC-3): > 100 µM (inactive)
GI50 (SNB-75): > 100 µM (inactive)
GI50 (SK-MEL-2): > 100 µM (inactive)
GI50 (LOX IMVI): > 100 µM (inactive)
GI50 (HCT-15): > 100 µM
GI50 (MCF7): > 100 µM (inactive)
GI50 (U-251): > 100 µM (inactive)
GI50 (SF-295): > 100 µM (inactive)
